For orientation: MIC means the lowest concentration found to suppress growth. As usually defined, the MBC is the lowest tested concentration that kills the bacteria rather than only halting them. Low values mean greater bactericidal potency, high ones weaker bactericidal potency. Usually IC50 stands for the concentration needed to halve the response being measured. One may read the HC50 as the concentration that lyses half of the red blood cells.

Converted amounts (≈) assume the structure as drawn. Where two headings read alike, the source gives them in different places. Where a SMILES comes first, the peptide text is derived from it. Where no end group is shown, it is not given here.

These results are taken from publication PMC9405102, “Targeted Modification and Structure-Activity Study of GL-29, an Analogue of the Antimicrobial Peptide Palustrin-2ISb” (Antibiotics, 2022).

One data set has as its system C. albicans. Also on record: method as in PMID 21911019. Conditions: C. albicans; cited from earlier work.
Data set [1] has as its system Staphylococcus aureus (S. aureus). Also on record: method as in PMID 21911019. Conditions: cited from earlier work.
The test system of a further data set is E. faecalis (NCTC 12697). In kind it is cell-based, Enterococcus faecalis. The method, then: The antimicrobial activity of the peptides was determined through the minimum inhibitory concentrations (MICs) and the minimum bactericidal concentration (MBCs) using the broth-dilution method in a 96-well plate, as described in the previous study. Six bacteria, including the Gram-positive bacteria, S. aureus (ATCC CRM 6538), MRSA (ATCC CRM 12493) and E. faecalis (NCTC 12697), the Gram-negative bacteria, E. coli (ATCC CRM 8739), K. pneumoniae (ATCC CRM 43816) and P. aeruginosa (ATCC CRM 9027), the yeast, C. albicans (ATCC CRM 10231) and clinical isolates, S. aureus (B042 V2E1 A), MRSA (B038 V1S1 A), E. coli (ATCC BAA-2340) and K. pneumoniae (ATCC BAA-1705) were used in these assays to evaluate the antimicrobial potency of the two peptides by determining their MICs and MBCs. All bacteria were cultured in MHB and the yeast, C. albicans was cultured in YPD broth overnight. Then, the microorganisms were sub-cultured and diluted to the final concentration of 2 × 10^5 CFU/mL to 5 × 10^5 CFU/mL. The Norfloxacin and amphotericin B were used as positive controls for the bacteria and yeast, respectively. The assay was repeated three times, with five replicates at each time.

In data set [2] the test system is human keratinocyte cell line, HaCaT. The class given is cell-based. Conditions: 24 h. As for the experimental part:
(§1) The proliferative inhibition effect of GL-29 and its analogues were assessed by MTT assay as described in a previous study. HaCaT cell line (human keratinocytes) and four cancer cell lines, U251MG (human glioblastoma astrocytoma cell line), HCT116 (human colon cancer cell line), H157 (human non-small lung cancer cell line) and H838 (human lung carcinoma cancer cell line), were used in this assay. A total of 8000 cells/per well were seeded in the 96-well plate for 24 h and then treated with peptides at the concentration from 100 μM to 100 nM for 24 h. In this assay, 1% Triton X-100 and PBS were set as a positive and negative control, respectively. After which, the formazan was dissolved in DMSO and the OD value was detected by use of a Synergy HT plate reader (BioTek, Minneapolis, MN, USA) at λ = 570 nm.
(§2) Data were analysed using Prism (Version 8.2.1; GraphPad Software, Inc, San Diego, CA, USA). Error bars in the graphs represented standard errors of means (SEM) of nine repeats from three independent tests. The statistical significance was calculated using two-way ANOVA and is indicated as ns (non-significant difference), * (p < 0.05), ** (p < 0.01), *** (p < 0.001), ****(p < 0.0001). The HC10, HC50 and IC50 values were calculated using the online tool AAT Bioquest (https://www.aatbio.com/index.html, accessed on 6 May 2022).

Data set [3] deals with methicillin-resistant S. aureus (MRSA). Also on record: method as in PMID 21911019. Conditions: cited from earlier work.
In another data set the test system is horse erythrocytes. In kind it is cell-based. The following applies: red cells of horse, 2 h. As for the experimental part:
The haemolysis assays were performed by incubating prewashed erythrocyte suspension obtained from fresh defibrinated horse blood (TCS Biosciences Ltd., Buckingham, UK) with a range of peptides at final concentrations from 512 to 1 μM, for 2 h at 37 °C. The red cell suspensions were washed with phosphate-buffered saline (PBS) until the supernatant was clear and then diluted with PBS to form a 2% cell suspension. Peptides were 2-fold diluted by the 2% cell suspension to reach the final concentration range from 512 to 1 μM. The haemolysis of the cell suspensions with either 1% (v/v) Triton X-100 or PBS, were considered as positive controls and negative controls, respectively. After incubation, the extent of haemolysis was determined by measuring the absorbance of the supernatant from each sample at 570 nm with a Synergy HT plate reader (BioTek, USA).
as §2

In data set [4] the test system is Escherichia coli (E. coli). Also on record: method as in PMID 21911019. Conditions: cited from earlier work.
Another data set deals with HCT116. Put plainly: MTT antiproliferative assay. The class given is cell-based, human. The method, then: as §1, §2
The test system of another data set is H838. Put plainly: MTT antiproliferative assay. The class given is cell-based, human. The method, then:
as §1, §2

The next data set has as its system U251MG. Put plainly: MTT antiproliferative assay. In kind it is cell-based, human. The method, then:
as §1, §2

The next data set deals with H157. As to the kind of experiment: MTT antiproliferative assay. The class given is cell-based, human. Conditions: 24 h. As for the experimental part: as §1, §2
For orientation: Tetrazolium dyes change colour on reduction, which living cells bring about.

Data set [5] has as its system Galleria mellonella larvae (waxworms). As to the kind of experiment: Toxicity of peptide in larvae in vivo. The following applies: uninfected larvae. The method, then: In this assay, Galleria mellonella larvae (waxworms) (Livefood UK Ltd., Rooks Bridge, UK) were used as an infection model to investigate the antimicrobial potency of peptides against S. aureus, which was described in a previous study in detail (Yuan et al., 2019). The larvae, weights between 225 mg and 275 mg, were selected, and nine larvae were stored in a separate Petri dish as a group and they were divided into several groups. Then, 10 µL of the peptide solution at final concentrations of 8 µM and 16 µM, respectively, and 10 µL of PBS were injected into larvae to test the toxicity of peptides and PBS solution. Afterwards, 10 μL of the bacterial suspension in PBS (5 × 10^7 CFU/mL) were injected into larvae. All the infected larvae were ensured to be alive after 2 h of the injection, followed by the treatment with 10 μL of the peptide solution to reach final concentrations of 2, 4 and 8 μM, respectively. The negative control was treated with the same volume of PBS, and the positive control was dosed with the same volume of 20 mg/kg vancomycin (Sigma-Aldrich, UK). The number of living larvae was counted every 24 h for 5 days, except the first day of 12 h.

With `CC[C@H](C)[C@H](NC(=O)[C@H](CCCCN)NC(=O)[C@@H](NC(=O)[C@H](CO)NC(=O)[C@H](CC(N)=O)NC(=O)[C@H](Cc1c[nH]c2ccccc12)NC(=O)[C@H](CC(C)C)NC(=O)CN)[C@@H](C)CC)C(=O)N[C@@H](C)C(=O)NCC(=O)N[C@@H](CCCCN)C(=O)N[C@@H](CCCCN)C(=O)N[C@@H](CC(C)C)C(=O)N[C@@H](Cc1ccccc1)C(=O)N[C@H](C(=O)N[C@@H](CC(N)=O)C(=O)N[C@H](C(=O)N[C@@H](CC(C)C)C(=O)N[C@@H](CC(=O)O)C(=O)N[C@@H](CCCCN)C(=O)N[C@H](C(=O)N[C@@H](CCCNC(=N)N)C(=O)N[C@H]1CSSC[C@@H](C(=O)O)NC(=O)CNC(=O)CNC(=O)[C@H](C)NC(=O)[C@H](C(C)C)NC(=O)[C@H](CCCCN)NC1=O)[C@@H](C)CC)C(C)C)C(C)C` [GL-29] (HELM PEPTIDE1{G.L.W.N.S.I.K.I.A.G.K.K.L.F.V.N.V.L.D.K.I.R.C.K.V.A.G.G.C}$PEPTIDE1,PEPTIDE1,23:R3-29:R3$$$V2.0; N-terminus and C-terminus assumed; bridges inferred), the MIC with C. albicans is 100 µM (≈ 313 µg/mL); in data set [1] it was 6.3 µM (≈ 19.7 µg/mL); with E. faecalis (NCTC 12697) (NCTC 12697) it was 16 µM (≈ 50.1 µg/mL); in data set [3] it was 12.5 µM (≈ 39.1 µg/mL); in [4] it was 1.6 µM (≈ 5.01 µg/mL). Moreover, the MBC against E. faecalis (NCTC 12697) (NCTC 12697) stood at 32 µM (≈ 100 µg/mL). Further, in [2], the IC50 turned out to be 5.05 µM. Moreover, in the data set on horse erythrocytes, the HC10 was 5.86 µM. Further, in the data set with horse erythrocytes, the HC50 was found to be 33.03 µM.
As for GLWNSIKIA-NH2 [GL-9, GLWNSIKIA-NH2], the “inhibition of proliferative activity” value is on record as 20–40% with HCT116 (HCT116, 100 µM (highest concentration)); 20–40% with H838 (H838, 100 µM (highest concentration)); 20–40% with U251MG (100 µM (highest concentration)). This compound also showed a minimal bactericidal concentration (MBC) in the data set on E. faecalis (NCTC 12697) (E. faecalis (NCTC 12697)) above 512 µM. Also, the MIC in the data set on E. faecalis (NCTC 12697) (E. faecalis (NCTC 12697)) was above 512 µM.
As for GLWNSIKIAGKKLFVNVLDKIR-NH2 [GL-22], the IC50 in the data set with HCT116 (HCT116, MTT, 24 h) was 129 µM; in the data set with H838 (H838, MTT, 24 h), 25.2 µM; in the data set with H157, 9.36 µM; in the data set with U251MG (MTT, 24 h), 40.6 µM; in [2] it was 38.9 µM. The minimum bactericidal concentration (MBC) against E. faecalis (NCTC 12697) (NCTC 12697) was 32 µM. Moreover, inhibition of growth in the data set on E. faecalis (NCTC 12697) (NCTC 12697) (MIC) required 32 µM. Further, in the data set with horse erythrocytes, the HC10 came out at 87.304 µM. Moreover, the 50% haemolytic concentration (HC50) in the data set on horse erythrocytes was 254.11 µM. In addition, the toxicity against larvae result in [5] (2 × MIC (20 mg/kg)) was “no toxicity”; in data set [5] (4 × MIC (40 mg/kg)) it was “high toxicity”.
